target: human EP4 receptor (Homo sapiens, UniProt P35408); experiment: Measurement of EP4 agonist activity (cAMP production); format: cell-based; design: expressed in transfected cells; host or cells: HEK293; conditions: cAMP production in HEK293 cells stably expressing human EP4 receptor; average values where measured two or more times
Procedure: In order to investigate EP4 receptor agonist activity of the compounds of the present invention, production of cAMP was measured in HEK293 cells that were made to stably express the human EP4 receptor.
By using Refseq Database, prostaglandin E receptor was searched for. As a result, gene information of human EP4 (NM_000958) receptor was obtained. On the basis of this sequence information, the human EP4 receptor gene was cloned by PCR in a conventional manner using human cDNA as the template, and HEK293 cells that were made to stably express the human EP4 receptor were established. When cryopreserved cells of this strain were thawed and used, cells subcultured three times or more within a certain period of time (about 1 to 2 weeks) by using Dulbecco's Modified Eagle's Medium (Dulbecco's Modified Eagle's Medium may be henceforth abbreviated as DMEM) containing 10% FBS, 50 units each of penicillin and streptomycin were used. The subcultured cells were inoculated in wells of a poly-D-lysine-coated 96-well plate at a density of 2×10^4 to 2.5×10^4 cells/well, and cultured for one day. The medium in the wells was removed by suction, then DMEM (80 μL) was added to each well, and incubation was performed at 37° C. for 15 minutes. […] The reaction was allowed at 37° C. for 30 minutes, then the medium was removed by suction, Assay/Lysis Buffer (100 μL) contained in cAMP Screen Kit (produced by Applied Biosystems) was added to terminate the reaction. Then, the reaction mixture was incubated at 37° C. for 30 minutes to prepare a sample for quantification of cAMP, and the amount of cAMP in the sample was quantified according to the method indicated in cAMP Screen Kit. By non-linear regression of the compound concentration and the amount of cAMP, the concentration of the compound required for increasing cAMP to 50% of the maximum increase (EC50 value) was calculated by using the Kaleida Graph.

Chain of human EP4 receptor (P35408 whole entry): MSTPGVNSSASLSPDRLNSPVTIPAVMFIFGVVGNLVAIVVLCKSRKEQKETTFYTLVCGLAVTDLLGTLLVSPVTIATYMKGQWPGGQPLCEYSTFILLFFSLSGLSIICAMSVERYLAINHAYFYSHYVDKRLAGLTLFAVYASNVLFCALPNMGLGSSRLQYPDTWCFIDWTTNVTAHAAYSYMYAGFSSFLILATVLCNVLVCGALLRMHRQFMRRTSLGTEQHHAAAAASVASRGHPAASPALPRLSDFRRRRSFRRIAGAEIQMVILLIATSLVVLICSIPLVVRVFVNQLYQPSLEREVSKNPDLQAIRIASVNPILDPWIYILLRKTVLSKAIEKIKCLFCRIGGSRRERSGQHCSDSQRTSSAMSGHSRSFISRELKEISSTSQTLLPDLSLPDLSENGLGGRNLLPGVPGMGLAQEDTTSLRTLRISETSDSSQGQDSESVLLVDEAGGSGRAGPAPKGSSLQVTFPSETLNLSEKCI

First: O=C(O)c1ccc(CCN2C(=O)SCCN2CCC(O)Cc2cccc(Br)c2)cc1 (centres unmarked) [Comparative Example 1, 4-(2-(4-(4-(3-Bromophenyl)-3-hydroxybutyl)-2-oxo-1,3,4-thiadiazinan-3-yl)ethyl)benzoic acid, reference compound]
Second: O=C(O)c1cc(Br)c(CCN2C(=O)SCCN2CCC(O)Cc2cccc(C#Cc3ccsc3)c2)s1 (centres unmarked) [Example 2, 4-Bromo-5-(2-(4-(3-hydroxy-4-(3-(thiophen-3-ylethynyl)phenyl)butyl)-2-oxo-1,3,4-thiadiazinan-3-yl)ethyl)thiophene-2-carboxylic acid]
The EC50 of the first is 71-fold higher: 2.5 nM for the first, 0.035 nM for the second. The second is the more potent here.

Compared with `O=C(O)c1ccc(CCN2C(=O)SCCN2CCC(O)Cc2cccc(C#Cc3ccsc3)c2)s1` (centres unmarked) [Example 1, 5-(2-(4-(3-Hydroxy-4-(3-(thiophen-3-ylethynyl)phenyl)butyl)-2-oxo-1,3,4-thiadiazinan-3-yl)ethyl)thiophene-2-carboxylic acid], `O=C(O)c1ccc(CCN2C(=O)SCCN2CCC(O)Cc2cccc(C#Cc3cccs3)c2)s1` (centres unmarked) [Example 3, 5-(2-(4-(3-Hydroxy-4-(3-(thiophen-2-ylethynyl)phenyl)butyl)-2-oxo-1,3,4-thiadiazinan-3-yl)ethyl)thiophene-2-carboxylic acid] is 2.9-fold higher in EC50: 0.045 nM for the first, 0.13 nM for the second. The first is the more potent here.

Going from `Cc1cscc1C#Cc1cccc(CC(O)CCN2CCSC(=O)N2CCc2ccc(C(=O)O)s2)c1` (centres unmarked) [Example 4, 5-(2-(4-(3-Hydroxy-4-(3-((4-methylthiophen-3-yl)ethynyl)phenyl)butyl)-2-oxo-1,3,4-thiadiazinan-3-yl)ethyl)thiophene-2-carboxylic acid] to `N#Cc1cscc1C#Cc1cccc(CC(O)CCN2CCSC(=O)N2CCc2ccc(C(=O)O)s2)c1` (centres unmarked) [Example 7, 5-(2-(4-(4-(3-((4-Cyanothiophen-3-yl)ethynyl)phenyl)-3-hydroxybutyl)-2-oxo-1,3,4-thiadiazinan-3-yl)ethyl)thiophene-2-carboxylic acid], the EC50 falls from 0.34 nM to 0.09 nM (3.8-fold).

`O=C(O)c1ccc(CCN2C(=O)SCCN2CCC(O)Cc2cccc(C#Cc3ccsc3Cl)c2)s1` (centres unmarked) [Example 5, 5-(2-(4-(4-(3-((2-Chlorothiophen-3-yl)ethynyl)phenyl)-3-hydroxybutyl)-2-oxo-1,3,4-thiadiazinan-3-yl)ethyl)thiophene-2-carboxylic acid] and `N#Cc1ccsc1C#Cc1cccc(CC(O)CCN2CCSC(=O)N2CCc2ccc(C(=O)O)s2)c1` (centres unmarked) [Example 14, 5-(2-(4-(4-(3-((3-Cyanothiophen-2-yl)ethynyl)phenyl)-3-hydroxybutyl)-2-oxo-1,3,4-thiadiazinan-3-yl)ethyl)thiophene-2-carboxylic acid] are the same in EC50: 0.3 nM for the first, 0.3 nM for the second.

`Cc1cc(C#Cc2cccc(CC(O)CCN3CCSC(=O)N3CCc3ccc(C(=O)O)s3)c2)cs1` (centres unmarked) [Example 6, 5-(2-(4-(3-Hydroxy-4-(3-((5-methylthiophen-3-yl)ethynyl)phenyl)butyl)-2-oxo-1,3,4-thiadiazinan-3-yl)ethyl)thiophene-2-carboxylic acid] and `N#Cc1cc(C#Cc2cccc(CC(O)CCN3CCSC(=O)N3CCc3ccc(C(=O)O)s3)c2)cs1` (centres unmarked) [Example 12, 5-(2-(4-(4-(3-((5-Cyanothiophen-3-yl)ethynyl)phenyl)-3-hydroxybutyl)-2-oxo-1,3,4-thiadiazinan-3-yl)ethyl)thiophene-2-carboxylic acid] are within 1.5-fold of each other in EC50: 0.56 nM for the first, 0.6 nM for the second.

`O=C(O)c1ccc(CCN2C(=O)SCCN2CCC(O)Cc2cccc(C#Cc3cscn3)c2)s1` (centres unmarked) [Example 9, 5-(2-(4-(3-Hydroxy-4-(3-(thiazol-4-ylethynyl)phenyl)butyl)-2-oxo-1,3,4-thiadiazinan-3-yl)ethyl)thiophene-2-carboxylic acid] and `O=C(O)c1ccc(CCN2C(=O)SCCN2CCC(O)Cc2cccc(C#Cc3ccco3)c2)s1` (centres unmarked) [Example 11, 5-(2-(4-(4-(3-(Furan-2-ylethynyl)phenyl)-3-hydroxybutyl)-2-oxo-1,3,4-thiadiazinan-3-yl)ethyl)thiophene-2-carboxylic acid] are the same in EC50: 0.09 nM for the first, 0.09 nM for the second.

Compared with `O=C(O)c1ccc(CCN2C(=O)SCCN2CCC(O)Cc2cccc(C#Cc3ccccc3)c2)s1` (centres unmarked) [Example 15, 5-(2-(4-(3-Hydroxy-4-(3-(phenylethynyl)phenyl)butyl)-2-oxo-1,3,4-thiadiazinan-3-yl)ethyl)thiophene-2-carboxylic acid], `COc1ccccc1C#Cc1cccc(CC(O)CCN2CCSC(=O)N2CCc2ccc(C(=O)O)s2)c1` (centres unmarked) [Example 16, 5-(2-(4-(3-Hydroxy-4-(3-((2-methoxyphenyl)ethynyl)phenyl)butyl)-2-oxo-1,3,4-thiadiazinan-3-yl)ethyl)thiophene-2-carboxylic acid] is 1.6-fold lower in EC50: 0.63 nM for the first, 0.4 nM for the second. The second is the more potent here.

First: O=C(O)c1cc(Cl)c(CCN2C(=O)SCCN2CCC(O)Cc2cccc(C#Cc3ccsc3)c2)s1 (centres unmarked) [Example 17, 4-Chloro-5-(2-(4-(3-hydroxy-4-(3-(thiophen-3-ylethynyl)phenyl)butyl)-2-oxo-1,3,4-thiadiazinan-3-yl)ethyl)thiophene-2-carboxylic acid]
Second: O=C(O)c1cc(Cl)c(CCN2C(=O)SCCN2CCC(O)Cc2cccc(C#Cc3ccccn3)c2)s1 (centres unmarked) [Example 28, 4-Chloro-5-(2-(4-(3-hydroxy-4-(3-(pyridin-2-ylethynyl)phenyl)butyl)-2-oxo-1,3,4-thiadiazinan-3-yl)ethyl)thiophene-2-carboxylic acid]
The EC50 of the first is 3.3-fold lower: 0.026 nM for the first, 0.087 nM for the second. The first is the more potent here.

Going from `Cc1ccc(CC(O)CCN2CCSC(=O)N2CCc2ccc(C(=O)O)s2)cc1C#Cc1ccsc1` (centres unmarked) [Example 18, 5-(2-(4-(3-Hydroxy-4-(4-methyl-3-(thiophen-3-ylethynyl)phenyl)butyl)-2-oxo-1,3,4-thiadiazinan-3-yl)ethyl)thiophene-2-carboxylic acid] to `O=C(O)c1ccc(CCN2C(=O)OCCN2CCC(O)Cc2cccc(C#Cc3ccsc3)c2)s1` (centres unmarked) [Example 29, 5-(2-(4-(3-Hydroxy-4-(3-(thiophen-3-ylethynyl)phenyl)butyl)-2-oxo-1,3,4-oxadiazinan-3-yl)ethyl)thiophene-2-carboxylic acid], the EC50 rises from 0.1 nM to 0.16 nM (1.6-fold). The first is the more potent here.

Going from `O=C(O)c1ccc(CCN2C(=O)SCCN2CCC(O)Cc2cccc(C#Cc3cscc3-c3ccccc3)c2)s1` (centres unmarked) [Example 21, 5-(2-(4-(3-Hydroxy-4-(3-((4-phenylthiophen-3-yl)ethynyl)phenyl)butyl)-2-oxo-1,3,4-thiadiazinan-3-yl)ethyl)thiophene-2-carboxylic acid] to `O=C(O)c1ccc(CCN2C(=O)SCCN2CCC(O)Cc2cccc(/C=C/c3ccsc3)c2)s1` (centres unmarked) [Example 27, (E)-5-(2-(4-(3-Hydroxy-4-(3-(2-(thiophen-3-yl)vinyl)phenyl)butyl)-2-oxo-1,3,4-thiadiazinan-3-yl)ethyl)thiophene-2-carboxylic acid], the EC50 falls from 0.5 nM to 0.09 nM (5.6-fold).

system: rat femur; experiment: Neo-osteogenesis action in rat femur; format: in vivo; conditions: female SD rats, 100 μg test compound in in situ-solidified gel solution injected between quadriceps and periosteum, one week after administration
Procedure: Eight weeks old female SD rats (Charles River Japan) were fixed in the side lying position under triple anesthesia (medetomidine hydrochloride, midazolam, and butorphanol tartrate). After hair of the left femoral region was shaved with a hair clipper, and disinfection treatment was performed with 70% ethanol, an in situ-solidified gel solution of a test compound, specifically, a test compound dissolved in poly(lactic-co-glycolic acid) (RESOMER RG502H, produced by Evonik Industries)/poly(lactic-co-glycolic acid)-polyethylene glycol block copolymer (5050 DLG mPEG 5000, produced by Lakeshore Biomaterials)/N-methyl-2-pyrroridone (produced by Wako) (weight ratio 47%/3%/50%), was filled in a 1-mL syringe, a 21G injection needle was attached to the syringe, and the needle was transdermally stabbed from the quadriceps to the periosteum near the center of the femoral diaphyseal. Then, 100 μg as the amount of the test compound, or 50 μL as the administration volume of the solution was injected between the quadriceps and the periosteum, and the injection needle was drawn out. To the rats of the control group, the aforementioned in situ-solidified gel solution alone was administered. One week after the administration of the drug solution, the triple anesthesia was given to the animals, and they were fixed in the supine position, and euthanized by bleeding. […], circumferential tissues such as muscles were removed, the bone mineral content of the whole femur was measured by using a bone mineral analyzer DCS-600EX (produced by ALOKA), then it was divided into three portions along the long axis, and the bone mineral content of the center part (diaphysis) was evaluated. The test was performed with the groups each consisting of 6 animals.

Compared with `O=C(O)c1ccc(CCN2C(=O)SCCN2CCC(O)Cc2cccc(C#Cc3cccs3)c2)s1` (centres unmarked) [Example 3, 5-(2-(4-(3-Hydroxy-4-(3-(thiophen-2-ylethynyl)phenyl)butyl)-2-oxo-1,3,4-thiadiazinan-3-yl)ethyl)thiophene-2-carboxylic acid], `N#Cc1sccc1C#Cc1cccc(CC(O)CCN2CCSC(=O)N2CCc2ccc(C(=O)O)s2)c1` (centres unmarked) [Example 8, 5-(2-(4-(4-(3-((2-Cyanothiophen-3-yl)ethynyl)phenyl)-3-hydroxybutyl)-2-oxo-1,3,4-thiadiazinan-3-yl)ethyl)thiophene-2-carboxylic acid] is higher in “Bone mineral content of femur 1/3 center region (mg) Left femur (administered with compound)” value: 80.2 ± 2.6 mg for the first, 98.7 ± 4.1 mg for the second.

`Cc1cc(C#Cc2cccc(CC(O)CCN3CCSC(=O)N3CCc3ccc(C(=O)O)s3)c2)cs1` (centres unmarked) [Example 6, 5-(2-(4-(3-Hydroxy-4-(3-((5-methylthiophen-3-yl)ethynyl)phenyl)butyl)-2-oxo-1,3,4-thiadiazinan-3-yl)ethyl)thiophene-2-carboxylic acid] and `N#Cc1sccc1C#Cc1cccc(C[C@H](O)CCN2CCSC(=O)N2CCc2ccc(C(=O)O)s2)c1` [Example 24, (S)-5-(2-(4-(4-(3-((2-Cyanothiophen-3-yl)ethynyl)phenyl)-3-hydroxybutyl)-2-oxo-1,3,4-thiadiazinan-3-yl)ethyl)thiophene-2-carboxylic acid] are within error of each other in “Bone mineral content of femur 1/3 center region (mg) Left femur (administered with compound)” value: 81.3 ± 3.6 mg for the first, 80.7 ± 4.0 mg for the second.

same assay, conditions: female SD rats, contralateral femur, 100 μg test compound given at left femur, one week after administration

`O=C(O)c1ccc(CCN2C(=O)SCCN2CCC(O)Cc2cccc(C#Cc3cccs3)c2)s1` (centres unmarked) [Example 3, 5-(2-(4-(3-Hydroxy-4-(3-(thiophen-2-ylethynyl)phenyl)butyl)-2-oxo-1,3,4-thiadiazinan-3-yl)ethyl)thiophene-2-carboxylic acid] and `Cc1cc(C#Cc2cccc(CC(O)CCN3CCSC(=O)N3CCc3ccc(C(=O)O)s3)c2)cs1` (centres unmarked) [Example 6, 5-(2-(4-(3-Hydroxy-4-(3-((5-methylthiophen-3-yl)ethynyl)phenyl)butyl)-2-oxo-1,3,4-thiadiazinan-3-yl)ethyl)thiophene-2-carboxylic acid] are within error of each other in “Bone mineral content of femur 1/3 center region (mg) Right femur (no administration of compound)” value: 66.7 ± 2.7 mg for the first, 64.7 ± 2.4 mg for the second.

Reference: patent publication US11667630B2, “Nitrogen-containing 6-membered cyclic compound” (Asahi Kasei Pharma Corporation, priority 2017, dated 2023)
